Source: US20220031680A1, “Donecopride As Neuroprotective Agent In the Treatment of Neurodegenerative Diseases” (priority 2018, published 2022)

Assays:
[1] = test system: C57Bl6/J mice challenged with an intracerebroventricular injection of Aβ1-42 oligomers (AβO); test: Morris water maze (learning and long-term memory) in mice icv injected with AβO; type: in vivo, mouse
Method: (§1) Briefly, 144 C57Bl6/J male mice (3 months of age) were received and housed (4 to 5 per cage) in quarantine during 7 days, or longer. Test items were dosed per os (through oral gavage) once daily at different concentrations from day −1 to day +17.
From days +3 to days +14, learning capacities and long-term memory were investigated in the MWM assay.
(§2) The different experimental groups are defined as follow: • GROUP A (vehicle CTRL): po vehicle AND icv injection of vehicle (n=12) • GROUP B (APO CTRL): po vehicle AND icv injection of AβO (n=12) • GROUP C (positive CTRL): po Donepezil subchronic AND icv injection of AβO (n=12) • GROUP D (Donecopride CTRL): po Donecopride (9 mg/kg) AND icv injection of vehicle (n=12) • GROUP E (Flucopride CTRL): po Flucopride (9 mg/kg) AND icv injection of vehicle (n=12) • GROUP F (Donecopride Treated): po Donecopride (1 mg/kg) AND icv injection of AβO (n=12) • GROUP G (Donecopride Treated): po Donecopride (3 mg/kg) AND icv injection of AβO (n=12) • GROUP H (Donecopride Treated): po Donecopride (9 mg/kg) AND icv injection of AβO (n=12) • GROUP I (Fluocopride Treated): po Flucopride (1 mg/kg) AND icv injection of AβO (n=12) • GROUP J (Flucopride Treated): po Flucopride (3 mg/kg) AND icv injection of AβO (n=12) • GROUP K (Flucopride Treated): po Flucopride (9 mg/kg) AND icv injection of AβO (n=12) • GROUP L (positive CTRL): ip Donepezil acute on test days AND icv injection of AβO (n=12)
(§3) For per os dosing, Donecopride and Flucopride were formulated by solubilization in 0.9% NaCl. Compound dosing (total volume of 200 μL) started one day before induction of the disease (through icv injection of AβO) and was done for 19 consecutive days.
(§4) Single intra-cerebroventricular injection of 144 mice with vehicle or APO (max. 24 mice per day, all mice randomized): under anesthesia (ip injection of a mixture of ketamine/xylasine at a dose of 110 and 15 mg/kg, respectively) AβO (1 μL), or vehicle (1 μL) were injected into the right lateral ventricle. Injections were made using 10 μL Hamilton micro syringes fitted with a 26-gauge needle. The procedure was terminated by a subcutaneous injection of metacam (analgesia) at a dose of 5 mg/kg. Animals were then placed individually in their home-cage and the cage was placed in a heated cabinet until the animal has fully recovered. Animals were carefully monitored to control recovery after anesthesia.
(§5) Preparation of APO: Aβ1-42 was obtained from Bachem (ref H1368) (batch number: 1052301). The preparation of stable Aβ1-42 oligomers was performed as described in Garcia et al. (2010) J. Neurosci. 30:7516-7527. The oligomeric preparation (identified as Batch #2016-14) contained a mixture of stable trimers and tetramers of Aβ1-42, as well as monomeric forms of the peptide. All oligomer preparations used were previously characterized in terms of oligomer composition and in vitro neurotoxicity.
6 independent trials involving each 24 mice (i.e. 2 mice from each experimental group) for a total of 144 mice at day +4.
Detailed protocol: Habituation trials (visible platform)—The Morris water maze (MWM) was performed as described in Garcia et al. (2010) J. Neurosci. 30:7516-7527. The experimental apparatus consists of a circular water tank (diameter=100 cm; height=50 cm) containing water at 21° C. to a depth of 25 cm and rendered opaque to block the view past the water surface by adding an aqueous acrylic emulsion. A platform (diameter=10 cm) is used and placed at the midpoint of a quadrant. The pool is located in a test room, homogeneously illuminated at 100 lux. The swimming path of the animals is recorded using a video tracking system. Mice are brought to the experimental room for at least 30 min prior to testing, to enable acclimation to the experimental room conditions. Navigation to a visible platform is carried out before place-navigation, to evaluate visual and motor abilities of all mice. […]

[2] = test system: C57Bl6/J mice challenged with an intracerebroventricular injection of Aβ1-42 oligomers (AβO); test: Novel Object Recognition assay in mice icv injected with AβO; type: in vivo, mouse; details: for mean discrimination index (NOR): day +16; for AβO-induced impairment of recognition memory (NOR): at all doses (1, 3, 9 mg/kg/day po)
Method: as §1
At days +15/+16, recognition memory was investigated using the Novel Object recognition test (NOR).
as §2, §3, §4, §5
6 independent trials involving each 24 mice (i.e. 2 mice from each experimental group) for a total of 144 mice at day +4—Behavioral tests were performed 1 h after dosing.
Detailed protocol: One day before the cognitive test (i.e. at day +15), mice are habituated during a 10 minutes' trial during which they are placed in an empty open field. The day of the cognitive test (i.e. day +16), animals are placed in the same open field and are allowed to explore freely two identical objects for a trial of five minutes (acquisition trial). Then the animals are returned in their home-cage for an inter-trial time of five minutes. During the retention trial, animals are allowed to explore two different objects: one familiar and one novel object. During this time, the experimenter, blind to the treatment, record the time the mouse is actively exploring each object. All trials are video recorded (Smart v3.0 software, Bioseb). A discrimination index is then generated: Discrimination index=(time exploring novel object−time exploring familiar object)/total exploration time. […]

[3] = 3 mg/kg/day po, icv AβO, day 5 of training
[4] = 9 mg/kg/day po, icv vehicle, day 5 of training
[5] = at all doses (1, 3, 9 mg/kg/day po), icv AβO
[6] = ip acute on test day, icv AβO (Group L)
[7] = po sub-chronic, icv AβO (Group C)

SMILES	mean crossing number (MWM probe trial) ([1]; 3 mg/kg/day po, icv AβO)	mean escape latency (MWM learning trials) [1, 3]	mean crossing number (MWM probe trial) ([1]; 9 mg/kg/day po, icv vehicle)	mean latency to target (MWM probe trial) ([1]; 9 mg/kg/day po, icv vehicle)	mean escape latency (MWM learning trials) [1, 4]	AβO-induced impairment of long-term memory evaluated using the number of crossings [1, 5]	time spent in target vs opposite quadrant (MWM probe trial) ([1]; icv AβO)	mean discrimination index (NOR) ([2]; 9 mg/kg/day po, icv vehicle)	AβO-induced impairment of recognition memory (NOR) ([2]; icv AβO)	further results
COc1cc(N)c(Cl)cc1C(=O)CCC1CCN(CC2CCCCC2)CC1 [Donecopride]	5.1±0.6	12.7 ± 1.5 s	4.6±0.5	7.2 ± 1.5 s	13.0 ± 1.7 s	inhibition	did not improve	0.29±0.04	dose-dependent inhibition	mean latency to target (MWM probe trial) ([1]; 1 mg/kg/day po, icv AβO): 9.3 ± 1.4 s; AβO-induced impairment of long-term memory evaluated using the latency to target [1, 5]: inhibition; mean discrimination index (NOR) ([2]; 9 mg/kg/day po, icv AβO): 0.43±0.06
COc1cc2c(cc1OC)C(=O)C(CC1CCN(Cc3ccccc3)CC1)C2 (centres unmarked) [Donepezil, reference compound]	–	–	–	–	–	–	failed to improve	–	–	mean crossing number (MWM probe trial) [1, 6]: 3.8±0.4; mean latency to target (MWM probe trial) [1, 6]: 13.3 ± 2.3 s; mean escape latency (MWM learning trials) ([1]; ip acute on test day, icv AβO (Group L), day 5 of training): 13.4 ± 1.5 s; mean crossing number (MWM probe trial) [1, 7]: 3.7±0.4; mean latency to target (MWM probe trial) [1, 7]: 14.6 ± 2.7 s; mean escape latency (MWM learning trials) ([1]; po sub-chronic, icv AβO (Group C), after five days of training (day 5)): 14.7 ± 1.9 s; mean discrimination index (NOR) [2, 6]: 0.30±0.07; mean discrimination index (NOR) [2, 7]: 0.29±0.09
COc1cc(N)c(F)cc1C(=O)CCC1CCN(CC2CCCCC2)CC1 [Flucopride]	4.1±0.6	12.5 ± 1.1 s	4.6±0.7	12.0 ± 2.1 s	16.3 ± 2.0 s	inhibition	did not improve	0.36±0.06	dose-dependent inhibition (bell-shaped curve)	mean escape latency (MWM learning trials) ([1]; 1 mg/kg/day po, icv AβO, day 5 of training): 13.1 ± 1.1 s; improvement of learning capacities (MWM learning trials) ([1]; 9 mg/kg/day po, icv AβO): had no effect; mean latency to target (MWM probe trial) ([1]; 9 mg/kg/day po, icv AβO): 10.7 ± 1.9 s; mean escape latency (MWM learning trials) ([1]; 9 mg/kg/day po, icv vehicle, day 4 of training): 14.2 ± 1.9 s; mean discrimination index (NOR) ([2]; 3 mg/kg/day po, icv AβO): 0.46±0.05
